Measurements taken from publication PMC7835950 (Frontiers in Chemistry, 2021).
Several values for one entry are separate records, joined by “and”; a condition that tells them apart may be missing. Identical values can stand only once.

Key:
[1] = Stability of the phosphonates and their esters during storage, by NMR; format: physicochemical; details: for decrease of purity: pure oil, room temperature, argon atmosphere, 6 months
Method: Stability of the purified phosphonates and their esterified precursor was analyzed by NMR after storage under the inert (pure argon) or ambient (air) atmosphere and in water solutions. ^1H, ^13C and ^31P NMR spectra were recorded at 400, 100.6, and 161.9 MHz, respectively with a Bruker Avance 400 spectrometer. Chemical shifts were calculated using D2O or CDCl3 as reference standards for trisodium salts and triesters, respectively. The spectra of the phosphonates and their esters before and after storage are shown in Supplementary Figures 1, 2 correspondingly.

[2] = substrate: O=C(O)CCC(=O)C(=O)O; test: purified protein, by the assay type; details: pH 7.0
[3] = substrate: O=C(O)CCCC(=O)C(=O)O; test: OADH reaction (OA saturation) catalyzed by the enzyme preparation from rat heart; format: biochemical; details: other: heart preparation; pH 7.0
Method: (§1) Enzymes catalyzing OGDH and OADH reactions were enriched from rat hearts and livers using polyethylene glycol precipitation, as previously described (Artiukhov et al., [2020]).
(§2) The enzyme activities were assayed in the medium (pH 7.0) containing 50 mM MOPS, 1 mM ThDP, 1 mM MgCl2, 1 mM CaCl2, 1 mM dithiothreitol 0.15 mM Coenzyme A, 0.25 mM NAD^+ and various concentrations of 2-oxo substrates (0–10 mM OG or OA) and their phosphonate analogs (0–5,000 μM SP, GP, or AP). Reactions were started by addition of the enzyme preparations to the assay media. The amount of enzyme preparations (0.074 mg protein for the preparation from liver and 0.023 mg protein for the preparation from heart) were chosen to induce the lowest reliably measured reaction rate (ΔA340 = 0.001/min) at 0.01 mM OA without the phosphonates.
(§3) Reaction rates were calculated from linear parts of the product accumulation curves (up to 10 min, dependent on the reaction rate), excluding the initial region, where mixing the reagents and solubilization of the preparation affected the optical density. […]
(§4) The kinetic data were also analyzed by linear regression, using the known methods of the linearization of the Michaelis-Menten equation in the Lineweaver-Burk ( 1/a=1/Amax(1+Km/[S]) ) and Eadie-Hofstee ( a=Amax−Kmv/[S] ) coordinates. […]

[4] = substrate: O=C(O)CCCC(=O)C(=O)O; test: OADH reaction catalyzed by the enzyme preparation from rat liver, high [OA] (low-affinity OA sites); format: biochemical; details: other: liver preparation, pH 7.0
Method: as §1, §2, §3, §4

[5] = substrate: O=C(O)CCCC(=O)C(=O)O; test: OADH reaction catalyzed by the enzyme preparation from rat liver, low [OA] (high-affinity OA sites); format: biochemical; details: other: liver preparation, pH 7.0
Method: as §1, §2, §3, §4

[6] = 0.2 M aqueous solution, 5 days of shelf storage, 31P NMR

In the case of `CCOC(=O)CCCC(=O)P(=O)(OCC)OCC` [TEGP, triethyl glutaryl phosphonate], the compound preserved [1, 6] is reported as “about 80%” and the decrease of purity [1] is reported as 4–6%.

In the case of `CCOC(=O)CCC(=O)P(=O)(OCC)OCC` [TESP, triethyl succinyl phosphonate], the decrease of purity [1] is reported as 4–6%.

For `COC(=O)CCCCC(=O)P(=O)(OC)OC` [TMAP, trimethyl adipoyl phosphonate], the compound decomposed [1, 6] was 90% and the decrease of purity [1] was 4–6%.

B1: OGDH (Rattus norvegicus) (protein)
chain: SAPVAAEPFLSGTSSNYVEEMYCAWLENPKSVHKSWDIFFRNTNAGAPPGTAYQSPLSLSRSSLATMAHAQSLVEAQPNVDKLVEDHLAVQSLIRAYQIRGHHVAQLDPLGILDADLDSSVPADIISSTDKLGFYGLHESDLDKVFHLPTTTFIGGQEPALPLREIIRRLEMAYCQHIGVEFMFINDLEQCQWIRQKFETPGIMQFTNEEKRTLLARLVRSTRFEEFLQRKWSSEKRFGLEGCEVLIPALKTIIDMSSANGVDYVIMGMPHRGRLNVLANVIRKELEQIFCQFDSKLEAADEGSGDMKYHLGMYHRRINRVTDRNITLSLVANPSHLEAADPVVMGKTKAEQFYCGDTEGKKVMSILLHGDAAFAGQGIVYETFHLSDLPSYTTHGTVHVVVNNQIGFTTDPRMARSSPYPTDVARVVNAPIFHVNSDDPEAVMYVCKVAAEWRNTFHKDVVVDLVCYRRNGHNEMDEPMFTQPLMYKQIRKQKPVLQKYAELLVSQGVVNQPEYEEEISKYDKICEEAFTRSKDEKILHIKHWLDSPWPGFFTLDGQPRSMTCPSTGLEEDILTHIGNVASSVPVENFTIHGGLSRILKTRRELVTNRTVDWALAEYMAFGSLLKEGIHVRLSGQDVERGTFSHRHHVLHDQNVDKRTCIPMNHLWPNQAPYTVCNSSLSEYGVLGFELGFAMASPNALVLWEAQFGDFNNMAQCIIDQFICPGQAKWVRQNGIVLLLPHGMEGMGPEHSSARPERFLQMCNDDPDVLPNLQEENFDISQLYDCNWIVVNCSTPGNFFHVLRRQILLPFRKPLIVFTPKSLLRHPEARTSFDEMLPGTHFQRVIPEDGPAAQNPDKVKRLLFCTGKVYYDLTRERKARDMAEEVAITRIEQLSPFPFDLLLKEAQKYPNAELAWCQEEHKNQGYYDYVKPRLRTTIDRAKPVWYAGRDPAAAPATGNKKTHLTELQRFLDTAFDLDAFKKFS
notes: the tissue fractions with the complexes enriched to a degree allowing for a robust detection of the enzymatic activities, have been used; from tissue; host or cells: rat liver
B1 showed a Km ([2]; other: heart preparation) of 450 ± 60 µM, a Km ([2]; other: liver preparation) of 270 ± 60 µM and a Km [3] of 550 ± 70 µM. For the same molecule, the Km [4] was 450 ± 120 µM.

B2: OADH (Rattus norvegicus) (protein)
chain: MASATVAAAGRALRRAVPLLRRSYQTERGVYGYRPRKAGSGEPRGDRARPSVDHGLARLVTVYCEHGHKAAQINPLFPGQALLDTVPEIQALVQTLQGPFTTTGLLNMGKEEASLEEVLAYLNHIYCGPISIETAQLQSQEEKDWFARRFEELKKETFTTEERKHLSKLLLESQEFDHFLATKFATVKRYGGEGAESMMGFFHELLKLSAYGGITDIIIGMPHRGRLNLLTGLLQLPPELMFRKMRGLSEFPENVAAIGDVLSHLTSSVDLDFGAHRPLHVTMLPNPSHLEAINPVAVGKTRGRQQSQEDGDYSPNGSAQPGDKVICLQVHGDASFCGQGIVLETFTLSNLPHFRIGGSIHLIVNNQLGYTTPAERGRSSLYSSDIGKLVGCAIIHVNGDSPEEVVRATRLAFEYQRQFRKDVIIDLLCYRQWGHNELDEPFFTNPVMYKIIRARKSIPDTYAEHLIASGLMTQEEVSDIKASYYAKLNGHLANVAHYSPPAPHLQARWQGLVQPAACVTTWDTGVPLELLRFVGVKSVEVPEELQLHSHLLKMYVQSRMEKVKNGTNLDWATAETLALGSLLAQGFNVRLSGQDVGRGTFSQRHAMVVCQNTDDVYIPLNHMDPNQKGFLEVSNSPLSEEAVLGFEYGMSIESPKLLPLWEAQFGDFFNGAQIIFDTFISGGEAKWLLQSGLVILLPHGYDGAGPDHSSCRIERFLQMCDSAEEGVDSDTVNMFVVHPTTPAQYFHLLRRQMMRNFRKPLIVASPKMLLRYPVAVSTLEEMAPGTAFKPVIGDSSVDPKNVKTLIFCSGKHFYALLKQRESLGAKKRDFAIIRLEELCPFPLDSLQQEMGKYKHVQDIIWSQEEPQNMGPWSFVYPRFEKQLACKLRLVSRPPLPAPAVGIGTVHQQQHEAILFKTFTS
With B2 the Km [5] was 8 ± 1 µM and 7.7 ± 0.8 µM.
